According to ChEMBL document CHEMBL3124770, “Rugulactone derivatives act as inhibitors of NF-κB activation and modulates the transcription of NF-κB dependent genes in MDA-MB-231cells” (Bioorg Med Chem Lett, 2014):
pIC50: −log10 of the molar value. Activity calls are given as the source filed them. The calls are words filed in the database; no cut-off is given here.

Legend:
[1] = tested on: MDA-MB-231; experiment: Reduction in HDAC-3 nuclear expression in estrogen receptor-negative human MDA-MB-231 cells at 2 uM after 24 hrs by Western blotting analysis; format: functional, cell-based
[2] = tested on: MDA-MB-231; experiment: Cell cycle arrest in estrogen receptor-negative human MDA-MB-231 cells assessed as decrease in CDK2 expression at 2 uM after 24 hrs by Western blotting analysis; format: functional, cell-based
[3] = tested on: MDA-MB-231; experiment: Induction of apoptosis in estrogen receptor-negative human MDA-MB-231 cells assessed as increase in PARP cleavage at 2 uM after 24 hrs by Western blotting analysis; format: functional, cell-based
[4] = tested on: MDA-MB-231; experiment: Induction of apoptosis in estrogen receptor-negative human MDA-MB-231 cells assessed as reduced procaspase-3 level at 2 uM after 24 hrs by Western blotting analysis; format: functional, cell-based
[5] = tested on: MDA-MB-231; experiment: Induction of apoptosis in estrogen receptor-negative human MDA-MB-231 cells assessed as increase in Rb cleavage at 2 uM after 24 hrs by Western blotting analysis; format: functional, cell-based
[6] = tested on: MDA-MB-231; experiment: Inhibition of NFkappaB activity in estrogen receptor-negative human MDA-MB-231 cells assessed as inhibition of cyclin D1 promoter activation at 2 uM by chromatin immunoprecipitation assay; format: cell-based
[7] = tested on: MDA-MB-231; experiment: Cell cycle arrest in estrogen receptor-negative human MDA-MB-231 cells assessed as decrease in Cyclin E expression at 2 uM after 24 hrs by Western blotting analysis; format: functional, cell-based
[8] = tested on: MDA-MB-231; experiment: Cell cycle arrest in estrogen receptor-negative human MDA-MB-231 cells assessed as accumulation at S phase at 2 uM after 24 hrs by Propidium iodide staining-based flow cytometric analysis (reference value: 19 +/- 1%); format: functional
[9] = tested on: MDA-MB-231; experiment: Inhibition of NFkappaB activity in estrogen receptor-negative human MDA-MB-231 cells at 2 uM after 24 hrs by SEAP reporter assay; format: cell-based
[10] = tested on: MDA-MB-231; experiment: Inhibition of NFkappaB activity in estrogen receptor-negative human MDA-MB-231 cells assessed as reduction of Bcl-xL expression at 2 uM after 24 hrs by Western blotting analysis; format: cell-based
[11] = tested on: MDA-MB-231; experiment: Inhibition of NFkappaB activity in estrogen receptor-negative human MDA-MB-231 cells assessed as upregulation of p27 gene expression at 2 uM after 24 hrs by luciferase reporter gene assay relative to control; format: cell-based
[12] = tested on: MCF7; experiment: Cytotoxicity against estrogen receptor-positive human MCF7 cells assessed as cell viability after 72 hrs by MTT assay; format: functional, cell-based; details: MCF7, 72 h
[13] = tested on: MDA-MB-231; experiment: Reduction in HDAC-8 nuclear expression in estrogen receptor-negative human MDA-MB-231 cells at 2 uM after 24 hrs by Western blotting analysis; format: functional, cell-based
[14] = tested on: MDA-MB-231; experiment: Inhibition of NFkappaB activity in estrogen receptor-negative human MDA-MB-231 cells assessed as reduction of p65 expression at 2 uM after 24 hrs by Western blotting analysis; format: cell-based
[15] = tested on: MDA-MB-231; experiment: Cell cycle arrest in estrogen receptor-negative human MDA-MB-231 cells assessed as accumulation at G1 phase at 2 uM after 24 hrs by Propidium iodide staining-based flow cytometric analysis (reference value: 54.66 +/- 2.51%); format: functional
[16] = tested on: MDA-MB-231; experiment: Inhibition of NFkappaB activity in estrogen receptor-negative human MDA-MB-231 cells assessed as cytoplasmic localization of p65 at 2 uM after 24 hrs by ELISA; format: cell-based
[17] = tested on: MCF7; experiment: Inhibition of NFkappaB activity in estrogen receptor-positive human MCF7 cells at 2 uM after 24 hrs by SEAP reporter assay; format: cell-based
[18] = tested on: MDA-MB-231; experiment: Inhibition of NFkappaB activity in estrogen receptor-negative human MDA-MB-231 cells assessed as retention of NFKappaB/Rel A in cytoplasm at 2 uM after 24 hrs by DAPI/PI staining-based confocal microscopy; format: cell-based
[19] = tested on: MDA-MB-231; experiment: Inhibition of NFkappaB activity in estrogen receptor-negative human MDA-MB-231 cells assessed as reduction of cyclin D1 expression at 2 uM after 24 hrs by Western blotting analysis; format: cell-based
[20] = tested on: MDA-MB-231; experiment: Effect on p21 gene expression in estrogen receptor-negative human MDA-MB-231 cells at 2 uM after 24 hrs by luciferase reporter gene assay; format: functional, cell-based
[21] = tested on: MDA-MB-231; experiment: Cytotoxicity against estrogen receptor-negative human MDA-MB-231 cells assessed as cell viability after 72 hrs by MTT assay; format: functional, cell-based; details: MDA-MB-231, 72 h
[22] = tested on: MDA-MB-231; experiment: Cell cycle arrest in estrogen receptor-negative human MDA-MB-231 cells assessed as accumulation at G2/M phase at 2 uM after 24 hrs by Propidium iodide staining-based flow cytometric analysis (reference value: 26.33 +/- 3.05%); format: functional

Row | Compound | inhibition [9] | pIC50 [12] | inhibition [17] | pIC50 [21] | also measured
1 | CCCCCCCCCCCCCCCCCC(=O)/C=C/C[C@@H]1CC=CC(=O)O1 | Active | 5.63 | Active | 5.68 | Activity [1]: Active; Activity [2]: Active; Activity [3]: Active; Activity [4]: Active; Activity [5]: Active; inhibition [6]: Active; Activity [7]: Active; Activity [8]: 6.33%; inhibition [10]: Active; fold change (FC) [11]: 2.5; Activity [13]: Active; inhibition [14]: Active; Activity [15]: 74%; inhibition [16]: Active; NF-kappaB activity inhibition [18]: Active; inhibition [19]: Active; Activity [20]: inactive; Activity [22]: 19.6%
2 | CCCCCCCCCCCCCCCCC/C=C/C(=O)/C=C/C[C@H]1CC=CC(=O)O1 | Active | 5.52 | Active | 5.54 | Activity [1]: Active; Activity [8]: 8%; inhibition [10]: Active; Activity [13]: Active; inhibition [14]: Active; Activity [15]: 72.6%; NF-kappaB activity inhibition [18]: Active; inhibition [19]: Active; Activity [20]: inactive; Activity [22]: 19.3%
3 | O=C(/C=C/C[C@@H]1CC=CC(=O)O1)CCc1cccc(Oc2ccccc2)c1 | Active | 5.34 | Active | 5.31 | 
4 | O=C(/C=C/C[C@@H]1CC=CC(=O)O1)CCc1ccc2ccccc2c1 | Active | 5.33 | Active | 5.32 | 
5 | CCCCCCCCCCCC(=O)/C=C/C[C@H]1CC=CC(=O)O1 | Active | 5.40 | Active | 5.50 | 
6 | O=C(/C=C/C[C@H]1CC=CC(=O)O1)CCc1cccc(O)c1 | Active | 5.36 | Active | 5.18 | 
7 | O=C(/C=C/C[C@@H]1CC=CC(=O)O1)CCc1ccco1 | Active | 5.36 | Active | 5.47 | 
8 | CCCCCCCC/C=C\CCCCCCCC(=O)/C=C/C[C@@H]1CC=CC(=O)O1 | Active | 5.29 | Active | 5.26 | 
9 | O=C(/C=C/C[C@@H]1CC=CC(=O)O1)CCc1c[nH]c2ccccc12 | Active | 5.24 | Active | 5.15 | 
10 | O=C(/C=C/C[C@H]1CC=CC(=O)O1)CCc1ccco1 | Active | 5.45 | Active | 5.48 | 
11 | O=C(/C=C/C[C@@H]1CC=CC(=O)O1)CCc1ccc2c(c1)OCO2 | Active | 5.18 | Active | 5.10 | 
12 | O=C(/C=C/C[C@@H]1CC=CC(=O)O1)CCc1ccccc1 [R-RUGULACTONE] | Active | 5.44 | Active | 5.46 | Activity [1]: Active; Activity [2]: Active; Activity [3]: Active; Activity [4]: Active; Activity [5]: Active; Activity [7]: Active; Activity [8]: 8.33%; Activity [13]: Active; Activity [15]: 70%; NF-kappaB activity inhibition [18]: Active; Activity [20]: inactive; Activity [22]: 21.66%
13 | CCCCCCCCCCCCCCCC(=O)/C=C/C[C@H]1CC=CC(=O)O1 | Active | 5.42 | Active | 5.40 | 
